Reference: patent US20090221520A1, “Polyene Antibiotics, Compositions Containing Said Antibiotics, Method and Micro-Organisms Used to Obtain Same and Applications Thereof” (priority 2005, published 2009)

Assays:
[1] = test system: Penicillium chrysogenum, Candida albicans, Aspergillus niger, Candida krusei and Cryptococcus neoformans; test: Antifungal activity trials, paper discs on bioassay plates; assay type: cell-based; conditions: for antifungal activities compared with the end products rimocidin (IIa) and CE-108 (IIb): measured as in example 1, Example 2; for antifungal activity (in words): paper disc trials, Example 1; for increase of antifungal activity by substitution of the free carboxyl- group for the amide- group: versus parent tetraene, all tested fungi, paper discs 9 mm
Method: P. chysogenum, C. krusei, A. niger, C. albicans and C. neoformans, fungi used for testing antifungal activity, were grown in MPDA medium (composition: 2% malt extract, 2% glucose, 0.1% Bactopeptone).
(§1) The antifungal activity of the novel amidated tetraenes [rimocidin B (I-1a) and CE-108B (I-1b)] was tested against various fungi: Penicillium chrysogenum, Candida albicans, Aspergillus niger, Candida krusei and Cryptococcus neoformans. Increasing quantities of the different tetraenes, dissolved in methanol, were applied to paper discs (9 mm in diameter); following the application, the discs were dried and placed on bioassay plates on which the corresponding test fungi had previously been spread. The activity of these amidated tetraenes was compared with that of the molecules from which they derived [[…]], showing that the biological activity of the amidated polyenes was substantially greater than that of the corresponding tetraenes that they derived from (FIG. 2) in all tested fungi. In all cases, the substitution of the free carboxyl- group for the amide- group increased the antifungal activity by approximately fourfold.
The antifungal activity of the novel non-carboxylated tetraenes rimocidin C (IIIa) and CE-108C (IIIb) was measured against Penicillium chrysogenum, Candida albicans, Aspergillus niger, Candida krusei and Cryptococcus neoformans, in comparison with that of the native tetraenes rimocidin (IIa) and CE-108 (IIb).

Human erythrocytes = test: Trials of haemolytic activity (toxicity) on human blood; assay type: cell-based; conditions: for haemolytic activity as a total percentage of haemolysis: 2.5% human blood, 37° C., 30 minutes, Example 1
Method: The trials were conducted according to the method described by Gómez-Gómez et al. (Gómez-Gómez, J. M. et al., 1996, Mol. Microbiol. 19: 909-910). The samples of polyenes were first dried and then dissolved in DMSO at an estimated concentration of 10 to 30 mg/mL. Increasing quantities of the different polyenes were taken to a final volume of 100 μL of DMSO and mixed by means of gentle stirring with 500 μL of PBS buffer (Gómez-Gómez, J. M. et al., 1996, cited earlier), containing 2.5% of human blood, or eventually that of horse. After incubation at 37° C. for 30 minutes without stirring, the cells were sedimented by centrifugation and the degree of haemolysis was assessed by means of measuring the absorption at 545 nm. The values corresponding to the total haemolysis were estimated with a suspension of 2.5% of horse blood in distilled water. The human blood (fundamentally erythrocytes) was obtained from local blood banks (Hospital Ramón y Cajal, Madrid); the horse blood came from Oxoid (defibrinated blood). The amphotericin B and the nystatin were obtained from Sigma (catalogue numbers A-4888 and N-3503, respectively) and the pimaricin came from Calbiochem (527962). All these polyenes were tested directly from commercial samples, without any additional purification
In the above experiments it is clear that the modification of the novel amidated polyenes, produced by the genetic recombinants of Streptomyces diastaticus var. 108 gave rise to compounds with high antifungal activity. […] Human erythrocytes were used as cell models for this study (Cybulska B, et al., 2000, Acta Biochim. Pol. 47: 121-131; Gómez-Gómez, J. M. et al., 1996, Mol. Microbiol. 19: 909-910). The haemolytic activity of the novel compounds was assessed (see the section relating to Experimental Methods) against rimocidin and CE-108; amphotericin B and nystatin A were also included. […] It is worth while highlighting the differences in toxicity observed between CE-108 (IIb) and CE-108B (I-1b) with rimocidin (IIa) and rimocidin B (I-1a); while 50% of haemolysis is achieved with 40 to 60 nanomoles for the last two polyenes, a concentration of CE-108 and is amide 6 or 7 times greater is required in order to achieve the same degree of haemolysis.
The trials were conducted on human blood enriched in eritrocytes, as described previously in Example 1.
In order to measure whether other pharmacological properties of the novel tetraenes were different, haemolytic activity trials were conducted and compared with the parent compounds. Human eritrocytes, were used for these tests. It can be pointed out that although the antifungal activities of rimocidin (IIa) and rimocidin C (IIIa) were similar, their toxicities (measured in terms of haemolytic activity) were 2.5-5 times lower for rimocidin C (IIIa) than for rimocidin (IIa).

Penicillium chrysogenum = test: Antifungal activity of pimaricin and AB-400 towards P. chrysogenum; assay type: cell-based; conditions: for antifungal activity at the tested concentration: P. chrysogenum, a total of 200 ng added in each test
Method: RGU5.3. […] RGU5.3 grown in medium with acetate (FIG. 3A) or glucose (FIG. 3B) as source of carbon, respectively. FIG. 3C illustrates the antifungal activity of pimaricin (IVa) and AB-400 (IVb) towards P. chrysogenum; the samples of polyenes applied were (1): commercial pimaricin (Calbiochem […]), (2): total extract of the fermentation culture of S. sp. RGU5.3 grown in glucose medium; (3) purified AB-400 coming from S. sp. RGU5.3 and (4) pimaricin coming from S. sp. RGU5.3; a total of 200 ng. were added in each test.
as §1
The same results were obtained comparing pimaricin (IVa) and its amidated derivative AB-400 (IVb). Both compounds were purified starting from the isolated strain Streptomyces sp. RGU5.3, as indicated in the section on Experimental Methods. […] In this way, using a fermentation culture containing glucose as the source of carbon and not sodium acetate, the pimaricin/AB-400 balance is 70/30; when the same medium is supplemented with sodium acetate, the production profile is reversed, being AB-400 (IVb) the main polyene compound produced (FIG. 3). […]

## 14-decarboxy-14-methyl-rimocidin [Rimocidin C (IIIa)]
[1]
  antifungal activities compared with the end products rimocidin (IIa) and CE-108 (IIb): not significantly different
Human erythrocytes
  toxicity (measured in terms of haemolytic activity), times lower than for rimocidin (IIa): 2.5-5 times

## C[C@@H]1C/C=C/C=C/C=C/C=C/[C@H](O[C@@H]2O[C@H](C)[C@@H](O)[C@H](N)[C@@H]2O)C[C@@H]2O[C@](O)(C[C@@H](O)C[C@H]3O[C@@H]3/C=C/C(=O)O1)C[C@H](O)[C@H]2C(=O)O [pimaricin (IVa), pimaricin]
Penicillium chrysogenum
  antifungal activity at the tested concentration: no antifungal activity was observed

## CCC[C@@H]1C/C=C/C=C/C=C/C=C/[C@H](O[C@@H]2O[C@H](C)[C@@H](O)[C@H](N)[C@@H]2O)C[C@@H]2O[C@](O)(C[C@@H](O)CCCC(=O)C[C@@H](O)[C@H](CC)C(=O)O1)C[C@H](O)[C@H]2C(=O)O [Rimocidin (IIa), rimocidin]
Human erythrocytes
  quantity with which 50% of haemolysis is achieved: 40 to 60 nmol

## CCC1C(=O)O[C@H](C)C/C=C/C=C/C=C/C=C/[C@H](OC2OC(C)C(O)C(N)C2O)C[C@@H]2O[C@](O)(CC(O)CCCC(=O)CC1O)C[C@H](O)[C@H]2C(=O)O (stereo partly drawn) [CE-108 (IIb), CE-108]
[1]
  antifungal activity (in words): low
Human erythrocytes
  concentration required to achieve the same degree (50%) of haemolysis, times greater than for rimocidin and rimocidin B: 6 or 7 times

## 14-decarboxy-methyl-CE-108 [CE-108C (IIIb)]
[1]
  antifungal activities compared with the end products rimocidin (IIa) and CE-108 (IIb): not significantly different

## C[C@@H]1C\C=C/C=C\C=C/C=C[C@H](O[C@@H]2O[C@H](C)[C@@H](O)[C@H](N)[C@@H]2O)C[C@@H]2O[C@](O)(C[C@@H](O)C[C@H]3O[C@@H]3/C=C\C(=O)O1)C[C@H](O)[C@H]2C(N)=O [AB-400 (IVb), AB-400]
Human erythrocytes
  haemolytic activity of AB-400 compared with commercial pimaricin: did not show significant differences
Penicillium chrysogenum
  antifungal activity at the tested concentration: highly active
Penicillium chrysogenum; Penicillium chrysogenum
  difference in antifungal activity between AB-400 and pimaricin: ~1 order of magnitude
Solubility
  solubility compared with the parent / non-amidated compound: increase in their solubility

## C[C@@H]1[C@H](O)[C@@H](C)/C=C/C=C/CC/C=C/C=C/C=C/C=C/C(O[C@H]2O[C@H](C)[C@@H](O)[C@H](N)[C@@H]2O)CC2O[C@](O)(CC(O)C(O)CCC(O)CC(O)CC(O)CC(=O)O[C@H]1C)CC(O)C2C(=O)O (stereo partly drawn) [Nystatin A, nystatin A]
Human erythrocytes; 20 nanomoles of polyene
  haemolytic activity as a total percentage of haemolysis: 2.20%
Human erythrocytes; 40 nanomoles of polyene
  haemolytic activity as a total percentage of haemolysis: 49.53%
Human erythrocytes; 60 nanomoles of polyene
  haemolytic activity as a total percentage of haemolysis: 76.80%
Human erythrocytes; 80 nanomoles of polyene
  haemolytic activity as a total percentage of haemolysis: 92.79%
Human erythrocytes; 100 nanomoles of polyene
  haemolytic activity as a total percentage of haemolysis: 100.00%

## CE-108B [CE-108B (I-1b)]
[1]
  antifungal activity (in words): almost as high as that of rimocidin
  increase of antifungal activity by substitution of the free carboxyl- group for the amide- group: approximately fourfold
Human erythrocytes
  concentration required to achieve the same degree (50%) of haemolysis, times greater than for rimocidin and rimocidin B: 6 or 7 times
  haemolytic activity compared with the corresponding tetraene it derived from: not significantly different
  haemolytic activity, times lower than that of rimocidin: 6 or 7 times

## rimocidin B [Rimocidin B (I-1a)]
[1]
  increase of antifungal activity by substitution of the free carboxyl- group for the amide- group: approximately fourfold
Human erythrocytes
  haemolytic activity compared with the corresponding tetraene it derived from: not significantly different
  quantity with which 50% of haemolysis is achieved: 40 to 60 nmol
